PubChem BioAssay AID212 (DTP/NCI, 2004)
“And” between values parts separate entries of the source, which are not always exact repeats. Equal entries are not always repeated. Inconclusive results are not listed.

Test system: BDF1 mice, colon carcinoma 38 sc, T/C %
Test: NCI In Vivo Anticancer Drug Screen. Data for tumor model Colon Carcinoma 38 (subcutaneous) in B6D2F1 (BDF1) mice
Conditions: endpoint: median tumor weight (est.), higher = larger tumour
Method in brief: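 Ratio of survival or tumor size, compound-treated animals relative to vehicle controls, in tumor-bearing mice.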

Compound: O=C1c2ccccc2C(=O)c2c1cn1c2Cc2ccccc2C1
- T/C (dose: 5.0 mg/kg/injection, schedule: Q01DX005 (iv), vehicle: other): 36 % of control
- T/C (dose: 10.0 mg/kg/injection, schedule: Q01DX005 (iv), vehicle: other): 36 % of control
- T/C (dose: 18.0 mg/kg/injection, schedule: Q07DX002 (ip), vehicle: Klucel (hydroxypropylcellulose) (HPC)): 219 % of control
- T/C (dose: 18.75 mg/kg/injection, schedule: Q07DX002 (ip), vehicle: Klucel (hydroxypropylcellulose) (HPC)): 63 % of control
- T/C (dose: 20.0 mg/kg/injection, schedule: Q01DX005 (iv), vehicle: other): 36 % of control
- T/C (dose: 37.0 mg/kg/injection, schedule: Q07DX002 (ip), vehicle: Klucel (hydroxypropylcellulose) (HPC)): 89 % of control
- T/C (dose: 37.5 mg/kg/injection, schedule: Q07DX002 (ip), vehicle: Klucel (hydroxypropylcellulose) (HPC)): 63 % of control
- T/C (dose: 40.0 mg/kg/injection, schedule: Q01DX005 (iv), vehicle: other): 23 % of control
- T/C (dose: 75.0 mg/kg/injection, schedule: Q07DX002 (ip), vehicle: Klucel (hydroxypropylcellulose) (HPC)): 38 % of control and 41 % of control and 59 % of control
- T/C (dose: 75.0 mg/kg/injection, schedule: Q07DX002 (iv), vehicle: other): 95 % of control
- T/C (dose: 100.0 mg/kg/injection, schedule: Q07DX002 (ip), vehicle: other): 74 % of control
- T/C (dose: 100.0 mg/kg/injection, schedule: Q07DX002 (ip), vehicle: saline with Tween-80): 63 % of control
- T/C (dose: 100.0 mg/kg/injection, schedule: Q07DX002 (iv), vehicle: other): 120 % of control
- T/C (dose: 150.0 mg/kg/injection, schedule: Q07DX002 (ip), vehicle: other): 41 % of control
- T/C (dose: 200.0 mg/kg/injection, schedule: Q07DX002 (ip), vehicle: other): 41 % of control
- T/C (dose: 200.0 mg/kg/injection, schedule: Q07DX002 (ip), vehicle: saline with Tween-80): 61 % of control
- T/C (dose: 300.0 mg/kg/injection, schedule: Q07DX002 (ip), vehicle: Klucel (hydroxypropylcellulose) (HPC)): 8 % of control and 13 % of control

Compound: Cc1cc(O)c(O)c(Oc2cc(C)cc(O)c2O)c1
- T/C (dose: 0.35 mg/kg/injection, schedule: Q07DX002 (ip), vehicle: saline): 96 % of control
- T/C (dose: 0.7 mg/kg/injection, schedule: Q07DX002 (ip), vehicle: saline): 78 % of control
- T/C (dose: 1.4 mg/kg/injection, schedule: Q07DX002 (ip), vehicle: saline): 77 % of control

Compound: Nc1n[n+](-c2ccccc2)no1
- T/C (dose: 3.12 mg/kg/injection, schedule: Q07DX002 (ip), vehicle: water): 99 % of control and 108 % of control
- T/C (dose: 6.25 mg/kg/injection, schedule: Q07DX002 (ip), vehicle: water): 85 % of control and 86 % of control and 98 % of control
- T/C (dose: 50.0 mg/kg/injection, schedule: Q07DX002 (ip), vehicle: water): 70 % of control and 74 % of control and 94 % of control

Compound: CCc1ccc(C2=C(O)C(=O)C(c3ccccc3)=C(O)C2=O)cc1
- T/C (dose: 12.5 mg/kg/injection, schedule: Q07DX002 (ip), vehicle: Klucel (hydroxypropylcellulose) (HPC)): 101 % of control
- T/C (dose: 25.0 mg/kg/injection, schedule: Q07DX002 (ip), vehicle: Klucel (hydroxypropylcellulose) (HPC)): 81 % of control
- T/C (dose: 50.0 mg/kg/injection, schedule: Q07DX002 (ip), vehicle: Klucel (hydroxypropylcellulose) (HPC)): 50 % of control

Compound: [I][Hg][CH2]C1COC([CH2][Hg][I])CO1 (stereo unspecified)
- T/C (dose: 6.25 mg/kg/injection, schedule: Q07DX002 (ip), vehicle: suspension in saline): 67 % of control
- T/C (dose: 50.0 mg/kg/injection, schedule: Q07DX002 (ip), vehicle: suspension in saline): 120 % of control

Compound: [Cl][Mn][Cl]
- T/C (dose: 3.0 mg/kg/injection, schedule: Q07DX002 (ip), vehicle: saline): 118 % of control
- T/C (dose: 4.0 mg/kg/injection, schedule: Q07DX002 (ip), vehicle: saline): 97 % of control
- T/C (dose: 6.0 mg/kg/injection, schedule: Q07DX002 (ip), vehicle: saline): 92 % of control
- T/C (dose: 8.0 mg/kg/injection, schedule: Q07DX002 (ip), vehicle: saline): 81 % of control
- T/C (dose: 12.0 mg/kg/injection, schedule: Q07DX002 (ip), vehicle: saline): 119 % of control
- T/C (dose: 32.0 mg/kg/injection, schedule: Q07DX002 (ip), vehicle: saline): 95 % of control and 96 % of control
- T/C (dose: 48.0 mg/kg/injection, schedule: Q07DX002 (ip), vehicle: saline): 119 % of control
- T/C (dose: 64.0 mg/kg/injection, schedule: Q07DX002 (ip), vehicle: saline): 75 % of control
- T/C (dose: 96.0 mg/kg/injection, schedule: Q07DX002 (ip), vehicle: saline): 115 % of control
- T/C (dose: 128.0 mg/kg/injection, schedule: Q07DX002 (ip), vehicle: saline): 78 % of control

Compound: C[CH2][Ge]1([CH2]C)[CH2]CC2(CCN(CCCN(C)C)C2)C[CH2]1
- T/C (dose: 6.25 mg/kg/injection, schedule: Q07DX002 (ip), vehicle: saline): 97 % of control
- T/C (dose: 25.0 mg/kg/injection, schedule: Q07DX002 (ip), vehicle: saline): 105 % of control
- T/C (dose: 50.0 mg/kg/injection, schedule: Q07DX002 (ip), vehicle: saline): 110 % of control
